In PMC12193109, “Bioprospecting for Anti-Kinetoplastid Drug Discovery from Aloysia citrodora Essential Oil” (International Journal of Molecular Sciences, 2025):
Like-named read-outs stand apart in the source and are kept apart here.

Legend:
[1] = test system: T. cruzi epimastigotes; assay: In vitro trypanocidal activity on T. cruzi epimastigotes (alamarBlue); format: cell-based, Trypanosoma cruzi; conditions: 72 h; for IC50: Trypanosoma cruzi
Experimental: In a 96-well plate, a serial dilution of the tested compounds was performed in the liver infusion tryptose medium supplemented with 10% heat-inactivated fetal bovine serum. Later, 100 µL of 5 × 10^5 cells/mL of epimastigotes was added to each well. Afterwards, 20 µL of alamarBlue® was added to each well, and the plate was maintained at 26 °C for 72 h.
(§1) The cytotoxicity effect of the tested compounds was conducted using macrophages of the murine cell line J774.A1 (American Type Culture Collection #TIB-67) as previously described. The cells were maintained in the DMEM medium at 37 °C in a 5% CO2 humidified incubator. All the plates containing alamarBlue® were analyzed using the plate reader EnSpire Multimode Plate Reader® at excitation and emission wavelengths of 570 and 585 nm, respectively (PerkinElmer, ThermoFisher Scientific, Madrid, Spain). The IC50 (concentrations able to inhibit 50% of parasites), IC90 (concentrations able to inhibit 90% of parasites), and CC50 (concentration able to inhibit 50% of murine macrophages) values were determined for each compound by nonlinear regression using the GraphPad Prism 9 software.

[2] = In vitro leishmanicidal activity on L. amazonensis promastigotes (Alamar Blue); format: cell-based, Leishmania amazonensis; conditions: mouse; CC50 J774.A1 macrophages / IC50 L. amazonensis promastigotes; read-out: Selectivity SI (CC50/IC50), promastigotes
Experimental: (§2) The assay was conducted using the Alamar Blue® method as previously described. […] In 96-well microtiter plates (Corning^TM, Corning, NY, USA), serial dilutions of the citral derivative were first prepared, and later 10^6 parasites/mL were added into each well. Subsequently, 10% Alamar Blue® was added to the entire plate. The plates were incubated for 72 h at 26 °C. The cytotoxicity effect of the tested compounds was conducted using macrophages of the murine cell line J774.A1 (American Type Culture Collection #TIB-67) as previously described. The cells were maintained in the DMEM medium at 37 °C in a 5% CO2 humidified incubator. […] The IC50 (concentrations able to inhibit 50% of parasites), IC90 (concentrations able to inhibit 90% of parasites), and CC50 (concentration able to inhibit 50% of murine macrophages) values were determined for each compound by nonlinear regression using the GraphPad Prism 9 software.

[3] = test system: L. amazonensis promastigotes; assay: as above; format: cell-based, Leishmania amazonensis; conditions: 72 h, promastigotes, 72 h, ± SD
Experimental: as §2

[4] = Cytotoxicity on murine macrophages; format: cell-based; conditions: mouse, ± SD
Experimental: as §1

[5] = In vitro leishmanicidal activity on L. amazonensis intracellular amastigotes; format: cell-based, Leishmania amazonensis; conditions: mouse; CC50 J774.A1 macrophages / IC50 L. amazonensis amastigotes; read-out: Selectivity SI (CC50/IC50), amastigotes
[6] = test system: L. amazonensis intracellular amastigotes; assay: as above; format: cell-based, Leishmania amazonensis; conditions: Leishmania amazonensis; intracellular amastigotes; ± SD
[7] = test system: L. amazonensis promastigotes; assay: Mitochondrial membrane potential (JC-1 staining); format: cell-based, Leishmania amazonensis; conditions: IC90, 24 h, JC-1 red/green fluorescence ratio
Experimental: The effect of compound 9 to modulate cell features was studied in the L. amazonensis parasites using various specific commercial kits. Parasite cells were incubated with the compound at the previously calculated IC90 for 24 h. Subsequently, cells were washed and submitted to different treatments as mentioned by the manufacturer’s instructions. In all the assays, the plate reader EnSpire Multimode Plate Reader® (PerkinElmer, ThermoFisher Scientific, Madrid, Spain) and/or the image base system fluorescence microscope EVOS M5000 (version 1.5.1500.493) were used for fluorescence intensity quantification. […]
To evaluate the damage caused by the tested compound on mitochondrial function, mitochondrial membrane potential, the adenosine triphosphate (ATP) level, and reactive oxygen species (ROS) were measured as follows: The evaluation of the mitochondrial membrane potential was carried out using the JC-1 assay. JC-1 is a specific stain of the mitochondria which fluorescence emission depends on the mitochondrial membrane potential. In healthy mitochondria, JC-1 agglomerates and emits red fluorescence, while unhealthy ones remain as a monomer and emit green fluorescence. […]

[8] = test system: L. amazonensis; assay: ATP level (CellTiter-Glo luminescence); format: cell-based, Leishmania amazonensis; conditions: IC90, 24 h
Experimental: (§3) The effect of compound 9 to modulate cell features was studied in the L. amazonensis parasites using various specific commercial kits. Parasite cells were incubated with the compound at the previously calculated IC90 for 24 h. Subsequently, cells were washed and submitted to different treatments as mentioned by the manufacturer’s instructions. In all the assays, the plate reader EnSpire Multimode Plate Reader® (PerkinElmer, ThermoFisher Scientific, Madrid, Spain) and/or the image base system fluorescence microscope EVOS M5000 (version 1.5.1500.493) were used for fluorescence intensity quantification. For each protocol, images of representative population cells were obtained using the inverted confocal microscope Leica DMI 4000 B with the Leica Application Suite X 3.5.5.19976 software and Leica HC PL APO 63x/1.40 OIL CS2 Objective (Barcelona, Spain).
The adenosine triphosphate (ATP) level was measured using the CellTiter-Glo Luminescent Cell Viability Assay (Promega, Madrid, Spain). The mitochondrion in which most cellular oxidations occur is considered the main source of cell ATP, and any damage and/or malfunction of this organelle generate the depletion of ATP levels.

[9] = test system: L. amazonensis; assay: Intracellular ROS (CellROX Deep Red); format: cell-based, Leishmania amazonensis; conditions: IC90, 24 h
Experimental: as §3, with “Parasite” for “The effect of compound 9 to modulate cell features was studied in the L. amazonensis parasites using various specific commercial kits. Parasite”, “Spain). The measure of reactive oxygen species (ROS) was measured after treatment for 24 h using the CellROX® Deep Red fluorescent probe (Invitrogen, Madrid, Spain). The mitochondrion constitute an essential organelle to neutralize the reactive oxygen species; the malfunction of this organelle would generate an imbalance between the antioxidants and the reactive oxygen.” for “Spain).”

[10] = test system: L. amazonensis; assay: Plasma membrane permeability (SYTOX Green); format: cell-based, Leishmania amazonensis; conditions: IC90, 24 h
Experimental: as §3
SYTOX^TM Green (Life Technologies, Madrid, Spain), a cell-impermeable DNA-binding stain, was used to evaluate membrane permeability and integrity. The assay was conducted as detailed in the manufacture instructions and as previously described.

[11] = test system: L. amazonensis promastigotes; assay: Double stain assay (Hoechst 33342/PI) for programmed cell death; format: cell-based, Leishmania amazonensis; conditions: IC90, 24 h
Experimental: as §3
To identify the type of cell death occurring in treated Leishmania amazonensis, the Hoechst 33342 and propidium iodide (PI) dyes were employed. […] Post-treatment, three distinct staining patterns could be observed: blue fluorescence indicating cells […]; violet coloration resulting from the merge of blue and red fluorescence, representing late apoptotic cells; and red fluorescence corresponding to dead cells.

[12] = Leishmania amazonensis, Alamar Blue, read-out: L. amazonensis IC50
[13] = Leishmania amazonensis, read-out: L. amazonensis Promastigotes IC50

| SMILES | selectivity ratio [2] | CC50 ([4]; J774.A1 macrophage cell line) | IC50 [3, 13] | selectivity ratio [5] | IC50 [6] | also measured |
| --- | --- | --- | --- | --- | --- | --- |
| O=C(Cn1ccnc1[N+](=O)[O-])NCc1ccccc1 [Benznidazole, reference compound] | – | – | – | – | – | IC50 [1]: 1.81 µM; IC50 ([1]; alamarBlue, ± SD): 1.81 ± 0.5 µg/mL |
| CC(C)=CCCC(C)=CC=O [Compound 1, 3,7-dimethyl-2,6-octadienal] | 6.97 | > 300 µM | – | – | – | IC50 [3, 12]: 10.9 µg/mL; L. amazonensis IC50 ([3]; Alamar Blue, listed as Citral (1)): 8.47 ± 4.59 µg/mL; T. cruzi IC50 ([1]; alamarBlue, ± SD, listed as Citral (1)): 12.90 ± 1.92 µg/mL; IC50 [1]: 12.9 µM; IC50 ([1]; alamarBlue, ± SD): 24.8 µg/mL |
| CC(C)=CCC/C(C)=C/C=NO [Compound 2, citral oxime] | 12.6 | > 300 µM | 40.8 ± 19.4 µM | 9.39 | 56.9 ± 19.1 µM | – |
| CC(=O)ON=C/C=C(\C)CCC=C(C)C [Compound 3, citral oxime acetate] | – | – | > 100 µM | – | – | – |
| CCCC(=O)ON=C/C=C(\C)CCC=C(C)C [Compound 4, citral oxime butyrate] | – | – | > 100 µM | – | – | – |
| CC(C)=CCC/C(C)=C/C=NOC(=O)c1ccccc1 [Compound 5, citral oxime benzoate] | 10.4 | > 300 µM | 29.3 ± 8.07 µM | – | – | – |
| CC(C)=CCC/C(C)=C/C=NOC(=O)c1ccc([N+](=O)[O-])cc1 [Compound 6, citral oxime 4-nitrobenzoate] | 9.25 | > 300 µM | 34.2 ± 14.4 µM | – | – | – |
| CC(C)=CCC/C(C)=C/C=NNC(N)=O [Compound 7, citral semicarbazone] | 9.29 | > 300 µM | 43.8 ± 12.1 µM | – | – | – |
| CC(C)=CCCC(C)=CC=NNc1ccc([N+](=O)[O-])cc1[N+](=O)[O-] [Compound 9, citral 2,4-dinitrophenylhydrazone] | 2.98 | – | 10.6 ± 4.78 µM | 1.47 | 21.4 ± 0.65 µM | CC50 ([4]; murine macrophages J774.A1): 31.6 ± 1.96 µM; Decrease of mitochondrial membrane potential in comparison with untreated cells [7]: 50%; Reduction in ATP production in comparison to the negative controls [8]: 46.35%; Intracellular ROS level (in words) [9]: significant increase in emitted fluorescence; Effect on plasma membrane permeability (in words) [10]: can affect the cell’s membrane permeability; Type of cell death (in words) [11]: induction of mitochondrial-dependent apoptosis |
| CCCCCCCCCCCCCCCCOP(=O)([O-])OCC[N+](C)(C)C [Miltefosine, reference compound] | 11.2 | 72.2 ± 8.85 µM | – | 23.1 | 3.12 ± 0.3 µM | IC50 [3, 12]: 2.64 ± 0.09 µg/mL; IC50 ([3]; read-out: L. amazonensis Promastigotes IC50): 2.64 µM; Decrease of mitochondrial membrane potential in comparison with untreated cells [7]: 75%; Reduction in ATP production in comparison to the negative controls [8]: 74.11%; Effect on plasma membrane permeability (in words) [10]: greater degree of damage to membrane permeability compared to compound 9 |
